Series [1] is described as follows: collision cross section (TIMS, N2 drift gas) of the primary ion; higher = larger gas-phase ion size.
A short description of series [2]: reversed-phase LC retention time (C18, 15 min MeOH gradient); higher = more hydrophobic / later elution.
The mark [3] stands for this setting: ionization mode: ESI+, ion species: [M+H]+.
Where [4] appears, read: ionization mode: ESI-, ion species: [M-H]-.
[5] abbreviates: ionization mode: ESI+, ion species: [M]+.

Results on 28 compounds are retold here after the supplement of paper PMC12613149.

Structures are written as SMILES.

The compound `c1ccc2nc3ccccc3cc2c1` [Acridine] came in with a collision cross section in series [1] (setting [3]) of 132.33 Å². Further, the “reversed-phase LC retention time” value in series [2] (setting [3]) came to 8.73 min.

`CN1C(=O)CN=C(c2ccccc2)c2cc(Cl)ccc21` [Diazepam]: in series [1] (setting [3]), the collision cross section is 165.95 Å². In series [2] (setting [3]), the “reversed-phase LC retention time” value was determined as 14.2 min.

With `O=C(O)C(F)(OC(F)(F)C(F)(F)C(F)(F)F)C(F)(F)F` (stereo unspecified) [HFPO-DA], the collision cross section in series [1] (setting [4]) is 206.28 Å². Also, the “reversed-phase LC retention time” value in series [2] (setting [4]) stood at 13 min.

In series [1] (setting [4]), `CC(c1ccc(O)cc1)c1ccc(O)cc1` [Bisphenol E] yielded a collision cross section of 156.4 Å². In series [2] (setting [4]), the “reversed-phase LC retention time” value was found to be 12.7 min.

Regarding `CCCCOC(=O)c1ccccc1C(=O)OCCCC` [Dibutylphthalate], the collision cross section in series [1] (setting [3]) came out at 169.98 Å². The “reversed-phase LC retention time” value in series [2] (setting [3]) was found to be 16.4 min.

Regarding `c1ccc2ncccc2c1` [Quinoline], the collision cross section in series [1] (setting [3]) is on record as 118.24 Å². In addition, the “reversed-phase LC retention time” value in series [2] (setting [3]) came out at 9.66 min.

Turning to `CC1(C(=O)Nc2ccc(O)c(Cl)c2Cl)CCCCC1` [Fenhexamid], the collision cross section in series [1] (setting [3]) was found to be 166.46 Å²; in series [1] (setting [4]), 172.09 Å². Besides, the “reversed-phase LC retention time” value in series [2] (setting [3]) was 14.8 min; in series [2] (setting [4]), 14.6 min.

Compound `CC(C)CC(C)NC1=CC(=O)C(Nc2ccccc2)=CC1=O` (stereo unspecified) [6PPD-Quinone] yielded a collision cross section in series [1] (setting [3]) of 181.85 Å². Further, the “reversed-phase LC retention time” value in series [2] (setting [3]) worked out at 15.6 min.

In series [1] (setting [5]), `CCN(CCO)c1ccc(N=Nc2sc3cc(OC)ccc3[n+]2C)cc1` [Basic Blue 41] came in with a collision cross section of 195.62 Å². Further, the “reversed-phase LC retention time” value in series [2] (setting [5]) was 12.1 min.

Compound `NC(=O)N1c2ccccc2C(O)C(O)c2ccccc21` (stereo unspecified) [10,11-Dihydro-10,11-dihydroxycarbamazepine] displayed a collision cross section in series [1] (setting [3]) of 157.4 Å². In addition, the “reversed-phase LC retention time” value in series [2] (setting [3]) came out at 10.4 min.

The compound `BrC1CCC(Br)C(Br)CCC(Br)C(Br)CCC1Br` (stereo unspecified) [Hexabromocyclododecane (two peaks)] displayed a collision cross section in series [1] (setting [4]) of 178.05 Å². For the same compound, the “reversed-phase LC retention time” value in series [2] (setting [4]) was found to be 18.9 min.

In series [1] (setting [3]), `CCCOC(=O)NCCCN(C)C` [Propamocarb] returned a collision cross section of 142.68 Å². The “reversed-phase LC retention time” value in series [2] (setting [3]) was found to be 6.24 min.

In series [1] (setting [3]), `CCCCC(CC)COP(=O)(OCC(CC)CCCC)OCC(CC)CCCC` (stereo unspecified) [Tris(2-ethylhexl)phosphate] returned a collision cross section of 221.12 Å². The “reversed-phase LC retention time” value in series [2] (setting [3]) was determined as 19.8 min.

`Nc1nc(=O)n([C@@H]2CS[C@H](CO)O2)cc1F` [Emtricitabine]: the collision cross section in series [1] (setting [3]) is recorded as 146.78 Å². Also, the “reversed-phase LC retention time” value in series [2] (setting [3]) was 5.75 min.

`CC1(C)CC(NC(=O)c2cccc(C(=O)NC3CC(C)(C)NC(C)(C)C3)c2)CC(C)(C)N1` [Nylostab S-EED]: the collision cross section in series [1] (setting [3]) worked out at 235.31 Å²; in series [1] (setting [4]), 232.92 Å². In addition, the “reversed-phase LC retention time” value in series [2] (setting [3]) came out at 8.03 min; in series [2] (setting [4]) it was 11.7 min.

For the compound `c1ccc(Nc2cccc3ccccc23)cc1` [N-Phenyl-1-naphthylamine], in series [1] (setting [3]), the collision cross section is 153.28 Å². For the same compound, the “reversed-phase LC retention time” value in series [2] (setting [3]) is 16.1 min.

The compound `CCNC(=O)c1cccc(C)c1` [N-Ethyl-3-methylbenzamide] registered a collision cross section in series [1] (setting [3]) of 135.66 Å². The “reversed-phase LC retention time” value in series [2] (setting [3]) was 10.7 min.

On to `O=S(=O)(O)c1cccc2ccc(O)cc12` [2-Naphthol-8-sulfonic acid], for which the collision cross section in series [1] (setting [4]) came to 144.25 Å². In series [2] (setting [4]), the “reversed-phase LC retention time” value was 7.16 min.

As to `CC(=O)Nc1ccc(S(=O)(=O)Nc2cc(C)on2)cc1` [Acetylsulfamethoxazole], the collision cross section in series [1] (setting [3]) is 169.12 Å²; in series [1] (setting [4]) it was 165.1 Å². Moreover, the “reversed-phase LC retention time” value in series [2] (setting [3]) was 9.53 min; in series [2] (setting [4]), 6.92 min.

As to `CNC(=O)c1cc(Cl)cc(C)c1NC(=O)c1cc(Br)nn1-c1ncccc1Cl` [Chlorantraniliprole], the collision cross section in series [1] (setting [3]) is given as 199.14 Å²; in series [1] (setting [4]), 197.51 Å². The “reversed-phase LC retention time” value in series [2] (setting [3]) is 13.5 min; in series [2] (setting [4]) it was 13.8 min.

With `O=C1NCCN1Cc1ccc(Cl)nc1` [Imidacloprid-urea], the collision cross section in series [1] (setting [3]) was determined as 143.26 Å². In series [2] (setting [3]), the “reversed-phase LC retention time” value was 8.55 min.

`Fc1ccc(Oc2ccnc3cc(Cl)cc(Cl)c23)cc1` [Quinoxyfen] registered a collision cross section in series [1] (setting [3]) of 164.99 Å². In addition, the “reversed-phase LC retention time” value in series [2] (setting [3]) was 17.1 min.

`O=C(O)c1ccc(Cl)cc1Cl` [2,4-Dichlorobenzoic acid] displayed a collision cross section in series [1] (setting [4]) of 124.87 Å². In addition, the “reversed-phase LC retention time” value in series [2] (setting [4]) was determined as 6.78 min.

Take `COCCOCCOCCOCCOC` [Tetraglyme]: the collision cross section in series [1] (setting [3]) was determined as 152.39 Å². In addition, in series [2] (setting [3]), the “reversed-phase LC retention time” value is 8.94 min.

`NC1=NCCN1Cc1ccc(Cl)nc1` [Imidacloprid-guanidine] came in with a collision cross section in series [1] (setting [3]) of 148.89 Å². For the same compound, the “reversed-phase LC retention time” value in series [2] (setting [3]) worked out at 6.21 min.

In the case of `COCC(=O)N(c1c(C)cccc1C(=O)O)C(C)C(=O)O` (stereo unspecified), the collision cross section in series [1] (setting [4]) was found to be 159.84 Å². Moreover, the “reversed-phase LC retention time” value in series [2] (setting [4]) turned out to be 5.43 min.

`CC(C)(C(=O)O)c1ccc(C(O)CCCN2CCC(C(O)(c3ccccc3)c3ccccc3)CC2)cc1` (stereo unspecified) [Fexofenadine]: the collision cross section in series [1] (setting [3]) stood at 223.95 Å²; in series [1] (setting [4]), 224.37 Å². The “reversed-phase LC retention time” value came to 12.8 min in series [2] (setting [3]) and 14.2 min in series [2] (setting [4]).

As for `CNC(=O)/C(=N/OC)c1ccccc1COc1cc(C)ccc1C` [Dimoxystrobin], the collision cross section in series [1] (setting [3]) is given as 178.04 Å². The “reversed-phase LC retention time” value in series [2] (setting [3]) came out at 15.3 min.
